Literature values as cited in patent US9795686B2, “Biomaterials comprising hyaluronic acid binding peptides and bifunctional biopolymer molecules for hyaluronic acid retention and tissue engineering applications” (THE JOHNS HOPKINS UNIVERSITY, priority 2012, dated 2017).

Conditions: previously observed; read-out: Kd, affinity of HABPep for HA

Kd: 1650 nM
Sequence: GAHWQFNALTVR [HABPep]
